Assay results reported in patent publication US10030016B2 (Sunesis Pharmaceuticals, Inc., priority 2009, dated 2018).
pEC50, pIC50: −log10 of the molar value. Structures can show the parent of a compound that is named as a salt. Where two headings read alike, the source gives them in different places.

Legend:
[1] = target: PDK1 (Homo sapiens (Human), UniProt O15530); assay: PDK1 kinase assay (coupled PDK1/AKT/FAM-crosstide assay, IMAP fluorescence polarization); assay type: biochemical
Procedure, shortened: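 GST-tagged PDK1 (aa 51-359, 0.75 nM) was coupled to unphosphorylated GST-AKT2 140-467-PIFtide (10 nM) and 100 nM FAM-crosstide at 40 μM ATP, in Tris pH 7.2 buffer, for 30 min at 25 °C. Crosstide phosphorylation was read by IMAP fluorescence polarization (ΔmP) and fitted with a 4-parameter curve.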

[2] = test system: phospho-akt (Thr308) in PC-3 cells; assay: Inhibition of phospho-akt (Thr308) in PC-3 cells, MSD phospho-akt 308 ELISA kit; assay type: cell-based; settings: Homo sapiens, 2 hours, no serum, read-out: EC50
Procedure, shortened: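 Phospho-Akt (Thr308) levels were measured by MSD ELISA after PC-3 cells received compound for 2 hours in serum-free medium. Controls: DMSO (high), 5 μM wortmannin (low).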

[3] = inhibition of P308 Akt in PC-3 cells using MSD
[4] = inhibition of phospo-PDK1 in vitro
[5] = inhibition of P308 Akt in PC-3 cells, MSD

Sequence of PDK1 (O15530 51-359): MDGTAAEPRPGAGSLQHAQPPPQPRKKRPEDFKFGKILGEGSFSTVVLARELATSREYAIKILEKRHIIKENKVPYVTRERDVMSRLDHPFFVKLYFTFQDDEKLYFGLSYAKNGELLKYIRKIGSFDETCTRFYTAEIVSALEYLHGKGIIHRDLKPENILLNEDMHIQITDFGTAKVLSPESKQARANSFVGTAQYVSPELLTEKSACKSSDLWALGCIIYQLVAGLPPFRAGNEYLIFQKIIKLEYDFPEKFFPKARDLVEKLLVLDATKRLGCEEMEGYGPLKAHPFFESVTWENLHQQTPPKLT

Row | Compound | pIC50 ([1]; inhibition of PDK1 in vitro) | pEC50 [2, 3] | pIC50 [1, 4] | pEC50 [2, 5] | pEC50 ([2]; PC-3, 2 h, inhibition of P308 Akt in PC-3 cells, MSD)
1 | C[C@H](NC(=O)c1cc(C(F)(F)F)cnc1NCc1ccc(-c2cnc(N)cn2)cc1)c1ccc(F)c(F)c1 [Example 382, (S)-2-(4-(5-aminopyrazin-2-yl)benzylamino)-N-(1-(3,4-difluorophenyl)ethyl)-5-(trifluoromethyl)nicotinamide] | > 7.00 | > 6.00 |  |  | 
2 | C[C@H](NC(=O)c1cccnc1NCc1ccc(-c2ccc3ncc4c(c3c2)n(C)c(=O)n4C)s1)c1ccc(F)cc1 [Example 2.17, (S)-2-(((5-(1,3-dimethyl-2-oxo-2,3-dihydro-1H-imidazo(4,5-c]quinolin-8-yl)thiophen-2-yl)methyl)amino)-N-(1-(4-fluoro-phenyl)ethyl)nicotinamide] |  |  | < 5.30 | < 5.00 | 
3 | C[C@H](NC(=O)c1cc(I)cnc1NCc1ccc(-c2ccc3ncnc(N)c3c2)s1)c1ccc(F)cc1 [Example 7.21.2, 2-({[5-(4-aminoquinazolin-6-yl)thiophen-2-yl]methyl}amino)-N-[(1S)-1-(4-fluorophenyl)ethyl]-5-iodopyridine-3-carboxamide] |  |  | 6.00 to 7.00 | > 6.00 | 
4 | Cn1c(-c2ccc(CNc3ncc(C(F)(F)F)cc3C(=O)Nc3ccc(F)cc3)cc2)cc2c(N)ncnc21 [Example 337, 2-(4-(4-amino-7-methyl-7H-pyrrolo[2,3-d]pyrimidin-6-yl)-benzylamino)-N-(4-fluorophenyl)-5-(trifluoromethyl)nicotinamide] | > 7.00 | 5.00 to 6.00 |  |  | 
5 | CNc1ncnc2ccc(-c3ccc(CNc4ncccc4C(=O)NCc4ccc(F)c(F)c4)s3)cc12 [Example 4.24, N-(3,4-difluorobenzyl)-2-(((5-(4-(methylamino)quinazolin-6-yl)thiophen-2-yl)methyl)amino)nicotinamide] |  |  | > 7.00 | 5.00 to 6.00 | 
6 | C[C@H](NC(=O)c1cccnc1NC/C=C/c1ccc2c(c1)NC(=O)/C2=C\c1cnc[nH]1)c1ccc(F)c(F)c1 [Example 15.5, 2-((E)-3-((Z)-3-((1H-imidazol-5-yl)methylene)-2-oxoindolin-6-yl)allylamino)-N-((S)-1-(3,4-difluorophenyl)ethyl)nicotinamide] |  |  | > 7.00 | > 6.00 | 
7 | Cn1cnc2cnc(-c3ccc(CNc4nc5c(cc4C(=O)NCc4ccc(F)c(F)c4)CCC5)s3)cc21 [Example 8.15.2, N-(3,4-difluorobenzyl)-2-({[5-(1-methyl-1H-imidazo[4,5-c]pyridin-6-yl)thiophen-2-yl]methyl}amino)-6,7-dihydro-5H-cyclopenta[b] pyridine-3-carboxamide] |  |  | < 5.30 | < 5.00 | 
8 | C[C@H](NC(=O)c1cc(C#N)cnc1NCc1cnc(-c2cnc3[nH]ncc3c2)nc1)c1ccc(F)cc1 [Example 69, 5-Cyano-N-[(S)-1-(4-fluoro-phenyl)-ethyl]-2-{[2-(1H-pyrazolo[3,4-b]pyridin-5-yl)-pyrimidin-5-ylmethyl]-amino}-nicotinamide] | 6.00 to 7.00 | < 5.00 |  |  | 
9 | COCCn1cc(-c2ccc(CNc3ncc(C(F)(F)F)cc3C(=O)Nc3ccc(F)cc3)cc2)c2c(N)ncnc21 [Example 431] | > 7.00 | 5.00 to 6.00 |  |  | 
10 | C[C@H](NC(=O)c1nc(C#N)cnc1NCc1ccc(-c2cnc(N)c(CC[C@@H]3CCCN3)n2)cc1)c1ccc(F)c(F)c1 [Example 78, 3-{4-[5-Amino-6-((S)-2-pyrrolidin-2-yl-ethyl)-pyrazin-2-yl]-benzylamino}-6-cyano-pyrazine-2-carboxylic acid [(S)-1-(3,4-difluoro-phenyl)-ethyl]-amide] | > 7.00 | 5.00 to 6.00 |  |  | 
11 | Nc1ncnc2ccc(-c3ccc(CNc4nccnc4C(=O)NCc4cccc(F)c4)s3)cc12 [Example 3.73, 3-({[5-(4-aminoquinazolin-6-yl)thiophen-2-yl]methyl}amino)-N-(3-fluorobenzyl) pyrazine-2-carboxamide (TFA salt)] |  |  | > 7.00 | 5.00 to 6.00 | 
12 | C[C@H](NC(=O)c1cccnc1NCCOc1ccc2cc[nH]c2c1)c1ccc(F)c(F)c1 [Example 19.1, (S)-2-(2-(1H-indol-6-yloxy)ethylamino)-N-(1-(3,4-difluorophenyl)ethyl)nicotinamide] |  |  | < 5.30 | < 5.00 | 
13 | Nc1n[nH]c2ncc(-c3ccc(CNc4ncc(C(F)(F)F)cc4C(=O)NCC4CCOC4)cc3)cc12 (stereo not drawn) [Example 268, 2-(4-(3-amino-1H-pyrazolo [3,4-b]pyridin-5-yl)benzylamino)-N-((tetrahydro-furan-3-yl)methyl)-5-(trifluoromethyl) nicotinamide] | 6.00 to 7.00 | < 5.00 |  |  | 
14 | CC(C)Oc1cc(CNc2ncccc2C(=O)Nc2ccc(C(F)(F)F)cc2)cc(-c2c[nH]c3ncc(C(=O)NC4CC4)cc23)c1 [Example 4.1.2] |  |  | < 5.30 | < 5.00 | 
15 | NCCNc1n[nH]c2ncc(-c3ccc(CNc4ncc(C(F)(F)F)cc4C(=O)NCc4ccc(F)c(F)c4)cc3)cc12 [Example 153, 2-(4-(3-(2-amino-ethylamino)-1H-pyrazolo [3,4-b]pyridin-5-yl)benzylamino)-N-(3,4-difluorobenzyl)-5-(trifluoromethyl) nicotinamide] | > 7.00 | 5.00 to 6.00 |  |  | 
16 | C[C@H](NC(=O)c1cccnc1NCc1ccc(-c2ccc3ncnn3c2)s1)c1ccc(F)cc1 [Example 2.4, N-[(1S)-1-(4-fluorophenyl)ethyl]-2-({[5-([1,2,4]triazolo[1,5-a]pyridin-6-yl)thiophen-2-yl]methyl}amino)pyridine-3-carboxamide] |  |  | 5.30 to 6.00 | < 5.00 | 
17 | C[C@H](NC(=O)c1cc(C#N)cnc1NCc1ccc(-c2cnc(N)c(-c3cccc(N)c3)n2)cc1)c1ccc(F)cc1 [Example 237, 2-{4-[5-Amino-6-(3-amino-phenyl)-pyrazin-2-yl]-benzylamino}-5-cyano-N-[(S)-1-(4-fluoro-phenyl)-ethyl]-nicotinamide] | > 7.00 | > 6.00 |  |  | 
18 | Cn1cc(-c2ccc(CNc3ncc(C(F)(F)F)cc3C(=O)Nc3ccc(F)cn3)cc2)c2c(N)ncnc21 [Example 338, 2-(4-(4-amino-7-methyl-7H-pyrrolo[2,3-d]pyrimidin-5-yl)-benzylamino)-N-(5-fluoropyridin-2-yl)-5-(trifluoromethyl)nicotinamide] | > 7.00 | 5.00 to 6.00 |  |  | 
19 | CNS(=O)(=O)c1cnc(NCc2ccc(-c3ccc4ncnc(N)c4c3)s2)c(C(=O)NCc2ccc(F)c(F)c2)c1 [Ex. 8.7.1, 2-(((5-(4-aminoquinazolin-6-yl)thiophen-2-yl)methyl)amino)-N-(3,4-difluorobenzyl)-5-(N-methylsulfamoyl)nicotinamide] |  |  | 6.00 to 7.00 | > 6.00 | 
20 | C[C@H](NC(=O)c1cc(F)cnc1NCc1ccc(-c2ccc3ncnc(N)c3c2)s1)c1ccc(F)cc1 [Example 7.3.2, (S)-2-(((5-(4-aminoquinazolin-6-yl)thiophen-2-yl)methyl)amino)-5-fluoro-N-(1-(4-fluorophenyl)ethyl) nicotinamide] |  |  | > 7.00 | > 6.00 | 
21 | C[C@H](NC(=O)c1cc(C#N)cnc1NCc1ccc(-c2cnc(N)c(C#N)c2)cc1)c1ccc(F)cc1 [Example 115, (S)-2-(4-(6-amino-5-cyanopyridin-3-yl)benzylamino)-5-cyano-N-(1-(4-fluorophenyl)ethyl) nicotinamide] | > 7.00 | < 5.00 |  |  | 
22 | Cc1cc(-c2ccc(CNc3ncc(C#N)cc3C(=O)N[C@@H](C)c3ccc(F)cc3)cc2)cnc1N [Example 104, (S)-2-(4-(6-amino-5-methylpyridin-3-yl)benzylamino)-5-cyano-N-(1-(4-fluorophenyl)ethyl)nicotinamide] | > 7.00 | > 6.00 |  |  | 
23 | Nc1ncnc2ccc(-c3ccc(CNc4ncccc4C(=O)Nc4ccccc4Cl)s3)cc12 [Example 3.31, 2-({[5-(4-aminoquinazolin-6-yl)thiophen-2-yl]methyl}amino)-N-(2-chlorophenyl)pyridine-3-carboxamide (TFA salt)] |  |  | < 5.30 | < 5.00 | 
24 | CN(Cc1ccc(F)c(F)c1)C(=O)c1nccnc1NCc1ccc(-c2ccc3ncnc(N)c3c2)s1 [Example 3.84, 3-({[5-(4-aminoquinazolin-6-yl)thiophen-2-yl]methyl}amino)-N-(3,4-difluorobenzyl)-N-methylpyrazine-2-carboxamide (TFA salt)] |  |  | 6.00 to 7.00 | 5.00 to 6.00 | 
25 | C[C@H](NC(=O)c1cccnc1NCc1ccc(-c2cn(C)c3ncnc(N)c23)cc1)c1ccc(F)c(F)c1 [Example 2.38, 2-[4-(4-Amino-7-methyl-7H-pyrrolo[2,3-d]pyrimidin-5-yl)-benzylamino]-N-[(S)-1-(3,4-difluoro-phenyl)-ethyl]-nicotinamide] |  |  | > 7.00 | 5.00 to 6.00 | 
26 | O=C(NCc1ccc(F)cc1)c1cccnc1NCc1ccc(-c2c[nH]c3ncccc23)s1 [Example 1.16, 2-(((5-(1H-pyrrolo[2,3-b]pyridin-3-yl)thiophen-2-yl)methyl)amino)-N-(4-fluorobenzyl)nicotinamide] |  |  | 6.00 to 7.00 |  | < 5.00
27 | Nc1n[nH]c2ncc(-c3ccc(CNc4ncc(C(F)(F)F)cc4C(=O)Nc4ccc(Cl)cc4)cc3)cc12 [Example 304, 2-(4-(3-amino-1H-pyrazolo [3,4-b]pyridin-5-yl)benzylamino)-N-(4-chlorophenyl)-5-(trifluoromethyl)nicotinamide] | > 7.00 | > 6.00 |  |  | 
